The numbers were not newly measured in patent US8992954B2, “Compositions comprising a derivative of 5-aminolevulinic acid” (Photocure ASA, priority 2010, dated 2015), which cites them from elsewhere.

This data set concerns skin. To be noted: Eucerin cream base with 5%, 10% and 20% by weight of ALA; occlusion 4 hours; visible light.

With `NCC(=O)CCC(=O)O` [Composition 5-ALA, 5-amino-4-oxo-pentanoic acid], the Complaints during illumination result is “All volunteers complained about burning and itching”; the Pigmentary response entry was “pigmentary response was observed”; the “Skin reactions after the illumination” value was “erythema and edema appeared”.
